# From patent EP2818472A1, “Imidazo[4,5-c]pyridine and pyrrolo[3,2-c]pyridine compounds as G-protein-coupled receptor kinase 5 (GRK5) modulators” (Max-Planck-Gesellschaft zur Förderung der Wissenschaften …, priority 2013, dated 2014)
# Tested on: beta-TC6 cells
# Test: Insulin HTRF assay (relative activity Ar) in beta-TC6 cells
# Format: cell-based, mouse
# Conditions: Mus musculus, Beta-TC6, 4 h, insulin HTRF, supernatant of beta-TC6 cells, incubation with test compound at 37°C for 2, 3, 4h; read-out: Ar (relative activity)
# Method in brief: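 beta-TC6 cells (15k/well, seeded 24 or 48 h) washed, then exposed to compound in induction buffer (0.5% DMSO final) for 2, 3 or 4 h at 37°C.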
row,Compound,Emax
1,"CC(=O)Nc1ccc(Nc2cc3c(cn2)ncn3C)cc1 [Compound 726, N-[4-[(1-methylimidazo[4,5-c]pyridin-6-yl)amino]phenyl]acetamide]",50 to 100%
2,"COc1ccc(Nc2cc3c(cn2)ncn3C)c(OC)c1 [Compound 727, N-(2,4-dimethoxyphenyl)-1-methyl-imidazo[4,5-c]pyridin-6-amine]",50 to 100%
3,"COc1cc(Nc2cc3c(cn2)nc(Cc2cccnc2)n3C)cc(OC)c1OC [Compound 729, 1-methyl-2-(3-pyridylmethyl)-N-(3,4,5-trimethoxyphenyl)imidazo[4,5-c]pyridin-6-amine]",30 to 50%
4,"COc1ccc(Cn2cnc3cnc(Nc4ccc(NC(C)=O)cc4)cc32)cc1OC [Compound 730, N-[4-[[1-[(3,4-dimethoxyphenyl)methyl]imidazo[4,5-c]pyridin-6-yl]amino]phenyl]acetamide]",50 to 100%
5,"COc1ccc(Cn2cnc3cnc(Nc4ccc5c(c4)OCO5)cc32)cc1OC [Compound 731, N-(1,3-benzodioxol-5-yl)-1-[(3,4-dimethoxyphenyl)methyl]imidazo[4,5-c]pyridin-6-amine]",50 to 100%
6,"COc1cc(-n2cnc3cnc(-c4cccc(C(N)=O)c4)cc32)cc(OC)c1OC [Compound 732, 3-[1-(3,4,5-trimethoxyphenyl)imidazo[4,5-c]pyridin-6-yl]benzamide]",30 to 50%
7,"Fc1cccc(-c2cc3c(cn2)ncn3-c2ccccc2)c1 [Compound 733, 6-(3-fluorophenyl)-1-phenyl-imidazo[4,5-c]pyridine]",30 to 50%
8,"COc1ccc(-c2cc3c(cn2)ncn3-c2cccc(C(F)(F)F)c2)cc1OC [Compound 734, 6-(3,4-dimethoxyphenyl)-1-[3-(trifluoromethyl)phenyl]imidazo[4,5-c]pyridine]",30 to 50%
9,"Cn1c(-c2ccccc2)nc2cnc(-c3ccc(N)nc3)cc21 [Compound 735, 5-(1-methyl-2-phenyl-imidazo[4,5-c]pyridin-6-yl)pyridin-2-amine]",30 to 50%
10,"Cn1c(-c2ccco2)nc2cnc(-c3cccc(O)c3)cc21 [Compound 736, 3-[2-(2-furyl)-1-methyl-imidazo[4,5-c]pyridin-6-yl]phenol]",50 to 100%
11,"COc1ccc(Cn2cnc3cnc(-c4cccnc4)cc32)cc1OC [Compound 737, 1-[(3,4-dimethoxyphenyl)methyl]-6-(3-pyridyl)imidazo[4,5-c]pyridine]",50 to 100%
12,"COc1ccc(Cn2cnc3cnc(-c4cc(OC)c(OC)c(OC)c4)cc32)cc1OC [Compound 738, 1-[(3,4-dimethoxyphenyl)methyl]-6-(3,4,5-trimethoxyphenyl)imidazo[4,5-c]pyridine]",30 to 50%
13,"COc1cc(-c2cc3c(cn2)ncn3Cc2ccc(OC)c(OC)c2)ccc1O [Compound 739, 4-[1-[(3,4-dimethoxyphenyl)methyl]imidazo[4,5-c]pyridin-6-yl]-2-methoxy-phenol]",30 to 50%
14,"CN(C)c1cccc(-c2cc3c(cn2)ncn3-c2cccc(F)c2)c1 [Compound 740, 3-[1-(3-fluorophenyl)imidazo[4,5-c]pyridin-6-yl]-N,N-dimethyl-aniline]",50 to 100%
15,"Sc1nc2cnccc2n1-c1ccccc1 [Compound 741, 1-phenylimidazo[4,5-c]pyridine-2-thiol]",50 to 100%
16,"c1ccc(-c2nc3cnccc3[nH]2)nc1 [Compound 742, 2-(2-pyridyl)-1H-imidazo[4,5-c]pyridine]",30 to 50%
17,"c1csc(-c2nc3ccncc3[nH]2)c1 [Compound 743, 2-(2-thienyl)-3H-imidazo[4,5-c]pyridine]",30 to 50%
18,"COCc1nc2cnc(Nc3cc(OC)c(OC)c(OC)c3)cc2n1C [Compound 745, 2-(methoxymethyl)-1-methyl-N-(3,4,5-trimethoxyphenyl)imidazo[4,5-c]pyridin-6-amine]",30 to 50%
19,"CC(=O)c1cccc(-c2cc3c(cn2)nc(NCc2ccccc2F)n3C)c1 [Compound 747, 1-[3-[2-[(2-fluorophenyl)methylamino]-1-methyl-imidazo[4,5-c]pyridin-6-yl]phenyl]ethanone]",0 to 30%
20,"Cn1c(NCc2ccccc2)nc2cnc(-c3cccc(C(=O)O)c3)cc21 [Compound 748, 3-[2-(benzylamino)-1-methyl-imidazo[4,5-c]pyridin-6-yl]benzoic acid]",0 to 30%
21,"CNc1nc2cnc(Nc3ccc(Oc4ccccc4)cc3)cc2n1C [Compound 749, N2,1-dimethyl-N6-(4-phenoxyphenyl)imidazo[4,5-c]pyridine-2,6-diamine]",0 to 30%
22,"Cn1c(NCC2CC2)nc2cnc(Nc3cccc(Oc4ccccc4)c3)cc21 [Compound 750, N2-(cyclopropylmethyl)-1-methyl-N6-(3-phenoxyphenyl)imidazo[4,5-c]pyridine-2,6-diamine]",0 to 30%

row,Compound,Emax
1,"COCCNc1nc2cnc(-c3ccc(OC)nc3)cc2n1C [Compound 751, N-(2-methoxyethyl)-6-(6-methoxy-3-pyridyl)-1-methyl-imidazo[4,5-c]pyridin-2-amine]",0 to 30%
2,"FC(F)(F)c1cccc(-c2cc3c(cn2)ncn3-c2ccccc2)c1 [Compound 752, 1-phenyl-6-[3-(trifluoromethyl)phenyl]imidazo[4,5-c]pyridine]",0 to 30%
3,"CNc1nc2cnc(Nc3ccc(F)c(Cl)c3)cc2n1-c1cc(OC)c(OC)c(OC)c1 [Compound 753, N6-(3-chloro-4-fluoro-phenyl)-N2-methyl-1-(3,4,5-trimethoxyphenyl)imidazo[4,5-c]pyridine-2,6-diamine]",0 to 30%
4,"COc1cccc(-c2cc3c(cn2)ncn3Cc2ccc(OC)c(OC)c2)c1 [Compound 754, 1-[(3,4-dimethoxyphenyl)methyl]-6-(3-methoxyphenyl)imidazo[4,5-c]pyridine]",0 to 30%
5,"Cn1c(NCC2CCCO2)nc2cnc(Nc3cccc(OC(F)(F)F)c3)cc21 (centres unmarked) [Compound 755, 1-methyl-N2-(tetrahydrofuran-2-ylmethyl)-N6-[3-(trifluoromethoxy)phenyl]imidazo[4,5-c]pyridine-2,6-diamine]",0 to 30%
6,"Cn1c(-c2ccco2)nc2cnc(-c3cccc(OC(F)(F)F)c3)cc21 [Compound 756, 2-(2-furyl)-1-methyl-6-[3-(trifluoromethoxy)phenyl]imidazo[4,5-c]pyridine]",0 to 30%
7,"Cn1c(NCC2CC2)nc2cnc(-c3cccc(Oc4ccccc4)c3)cc21 [Compound 758, N-(cyclopropylmethyl)-1-methyl-6-(3-phenoxyphenyl)imidazo[4,5-c]pyridin-2-amine]",0 to 30%
8,"COCCNc1nc2cnc(-c3ccc4c(c3)OCO4)cc2n1C [Compound 759, 6-(1,3-benzodioxol-5-yl)-N-(2-methoxyethyl)-1-methyl-imidazo[4,5-c]pyridin-2-amine]",0 to 30%
9,"CNc1nc2cnc(Nc3ccc(OC)cc3C)cc2n1CC1CC1 [Compound 760, 1-(cyclopropylmethyl)-N6-(4-methoxy-2-methyl-phenyl)-N2-methyl-imidazo[4,5-c]pyridine-2,6-diamine]",0 to 30%
10,"CC(=O)Nc1ccc(-c2cc3c(cn2)ncn3-c2cccc(F)c2)cc1 [Compound 761, N-[4-[1-(3-fluorophenyl)imidazo[4,5-c]pyridin-6-yl]phenyl]acetamide]",0 to 30%
11,"CNc1nc2cnc(-c3cccc(OC(F)(F)F)c3)cc2n1Cc1ccccc1 [Compound 762, 1-benzyl-N-methyl-6-[3-(trifluoromethoxy)phenyl]imidazo[4,5-c]pyridin-2-amine]",0 to 30%
12,"Cn1c(NCC2CC2)nc2cnc(Nc3ccc(C(F)(F)F)cc3)cc21 [Compound 763, N2-(cyclopropylmethyl)-1-methyl-N6-[4-(trifluoromethyl)phenyl]imidazo[4,5-c]pyridine-2,6-diamine]",0 to 30%
13,"COc1cncc(-c2cc3c(cn2)nc(-c2ccco2)n3C)c1 [Compound 764, 2-(2-furyl)-6-(5-methoxy-3-pyridyl)-1-methyl-imidazo[4,5-c]pyridine]",0 to 30%
14,"CNc1nc2cnc(Nc3cccc(C(F)(F)F)c3)cc2n1Cc1cccnc1 [Compound 765, N2-methyl-1-(3-pyridylmethyl)-N6-[3-(trifluoromethyl)phenyl]imidazo[4,5-c]pyridine-2,6-diamine]",0 to 30%
15,"CNc1nc2cnc(Nc3cc(OC)cc(C(F)(F)F)c3)cc2n1Cc1ccco1 [Compound 767, 1-(2-furylmethyl)-N6-[3-methoxy-5-(trifluoromethyl)phenyl]-N2-methyl-imidazo[4,5-c]pyridine-2,6-diamine]",0 to 30%
16,"CNc1nc2cnc(-c3cccc(NS(C)(=O)=O)c3)cc2n1-c1cccc(F)c1 [Compound 768, N-[3-[1-(3-fluorophenyl)-2-(methylamino)imidazo[4,5-c]pyridin-6-yl]phenyl]methanesulfonamide]",0 to 30%
17,"Cn1c(NCCN2CCOCC2)nc2cnc(-c3cccc(F)c3)cc21 [Compound 769, 6-(3-fluorophenyl)-1-methyl-N-(2-morpholinoethyl)imidazo[4,5-c]pyridin-2-amine]",0 to 30%
18,"COCCNc1nc2cnc(-c3ccccc3C)cc2n1C [Compound 770, N-(2-methoxyethyl)-1-methyl-6-(o-tolyl)imidazo[4,5-c]pyridin-2-amine]",0 to 30%
19,"CNc1nc2cnc(-c3cccc(C(=O)NCCN(C)C)c3)cc2n1-c1cccc(F)c1 [Compound 771, N-(2-dimethylaminoethyl)-3-[1-(3-fluorophenyl)-2-(methylamino)imidazo[4,5-c]pyridin-6-yl]benzamide]",0 to 30%
20,"CNc1nc2cnc(Nc3cccc(C(C)C)c3)cc2n1CCOC [Compound 772, N6-(3-isopropylphenyl)-1-(2-methoxyethyl)-N2-methyl-imidazo[4,5-c]pyridine-2,6-diamine]",0 to 30%
21,"CNc1nc2cnc(Nc3ccc(OC(F)(F)F)cc3)cc2n1CCOC [Compound 773, 1-(2-methoxyethyl)-N2-methyl-N6-[4-(trifluoromethoxy)phenyl]imidazo[4,5-c]pyridine-2,6-diamine]",0 to 30%

# Same assay, conditions: insulin HTRF, supernatant of beta-TC6 cells, incubation with test compound at 37°C for 2, 3, 4h
row,Compound,Ar (relative activity)
1,"Sc1nc2cnccc2n1-c1ccccc1 [Compound 744, 1-phenylimidazo[4,5-c]pyridine-2-thiol]",++ (30 % ≤ Ar < 50 %)
